This is an account of results in US10251867B2, “Dosing regimen for a selective S1P1 receptor agonist” (ACTELION PHARMACEUTICALS LTD, priority 2008, dated 2019).

Where two headings read alike, the source gives them in different places.

The subject of one series is healthy male subjects. Briefly: Single-ascending dose (SAD) study AC-058-101, heart rate. The series is classed as in vivo, human. Particulars: without up-titration; 50 mg SAD, Day 1. How it is done:
In the single-ascending dose (SAD) study (AC-058-101), Compound 1 was administered orally to 6 groups of […] (aged 21-47 years). Doses of 1, 3, 8, 20, 50 and 75 mg were given to sequential groups of 8 subjects (6 on active drug and 2 on placebo) in a randomized, double-blind, placebo-controlled design. The dose of 20 mg was given once in the fasted and once in the fed condition, to assess any food effects on the pharmacokinetics of Compound 1. ECGs were recorded, clinical laboratory parameters, vital signs, pulmonary function, neurological assessments (in the 75-mg dose group), plasma levels of Compound 1, and peripheral lymphocyte counts (total and subsets) were determined. All 48 randomized subjects were evaluable and no subjects withdrew or discontinued from the study. All subjects treated with Compound 1 (n=36) were included in the pharmacokinetic (PK) and pharmacodynamic (PD) analysis.

The subject of series [1] is healthy male and female subjects. As to the kind of experiment: Multiple-ascending dose (MAD) study AC-058-102 Part A, heart rate without up-titration. The format is in vivo, human. Particulars: Day 1, Part A. The procedure: In Part A of the multiple-ascending dose (MAD) study (AC-058-102), Compound 1 was administered orally with doses of 5, 10, and 20 mg once-daily for 7 days to healthy male and female subjects (aged 22-58 years, 1:1 sex ratio) in a randomized, double-blind, placebo-controlled design. At each dose level, a group of 10 subjects were randomized to Compound 1 (8), or placebo (2). In Part A, all 30 randomized subjects completed the study and the 24 subjects who were treated with Compound 1 were included in the PK analysis.

In a further series the test system is subjects. Briefly: MAD study AC-058-102 Part B, up-titration scheme (10/20/40 mg), heart rate and ECG. The format is in vivo, human. The conditions noted are these: for Mean HR reduction (2.5 h post-dose vs pre-dose): with up-titration, Part B 40-mg dose group. The procedure:
In Part B of the MAD study, an up-titration scheme was implemented in order to reduce first-dose effects of Compound 1 on sinus node automaticity and atrioventricular- (AV-) conduction. Treatment with Compound 1 started for 4 days with 10 mg once daily, followed by 4 days with 20 mg once daily, and 7 days with 40 mg once daily. Seventeen subjects (nine females and eight males, aged 18-43 years) were randomized. Thirteen subjects received active treatment and four subjects received matching placebo. A total of 15 out of the 17 subjects completed the study as scheduled. […] The 11 subjects treated with 40-mg Compound 1 who completed the study were included in the PK analysis of Compound 1.

Series [2] relates to humans. The format is in vivo, human. An excerpt: All of these effects wane with repeated dosing. […] The acute effects on heart rate, atrioventricular conduction, or fatigue and dizziness, although not seriously adverse, are undesirable, and methods to minimize these effects would be valuable for maximizing the tolerability and safety of Compound 1, and other selective S1P1 receptor agonists, and minimizing associated monitoring requirements, in the early phase of dosing initiation, or, after a drug interruption, at re-initiation of drug therapy.
Desensitization has been sustained over this 24-hour dosing interval. […] Desensitization has not been sustained over this 7-day dosing interval of the 20-mg dose. […]

For series [3], the system named is multiple sclerosis patients. The conditions noted are these: cited from earlier work.
Series [4] concerns humans. Particulars: cited from earlier work.

In the case of `CCC/N=C1\S/C(=C\c2ccc(OC[C@H](O)CO)c(Cl)c2)C(=O)N1c1ccccc1C` [Compound 1, (R)-5-[3-chloro-4-(2,3-dihydroxy-propoxy)-benz[Z]ylidene]-2-([Z]-propylimino)-3-o-tolyl-thiazolidin-4-one], the “Mean HR reduction (2.5 h post-dose vs baseline)” value in the series on healthy male subjects was 18 bpm; in series [1] (10 mg), 14 bpm; in series [1] (20 mg), 22 bpm. In the series with subjects (Part B), the “Second or third degree AV-blocks” value is recorded as “No second or third degree AV-blocks were observed”. In addition, the “Effects on other ECG variables” value with subjects (Part B, multiple dosing) was “No relevant effects on other ECG variables were recorded”. For the same compound, the “Discontinuation of dosing due to adverse events” value with subjects (Part B, 13 subjects on active treatment) was “Dosing was discontinued in two subjects on active treatment due to adverse events”. In addition, the AV-block first degree entry in the series with subjects (Part B, after first 10 mg dose on Day 1) is recorded as “only one subject reported a transient AV-block first degree”. For the same compound, the “Mean HR reduction at 2.5 h post-dose vs pre-dose” value in the series on subjects (Part B, day 2 (10 mg)) is reported as 2 bpm; with subjects (Part B, day 3 (10 mg)), 1 bpm; in the series on subjects (Part B, day 4 (10 mg)), 1 bpm; in the series with subjects (Part B, day 6 (20 mg)) it was 4 bpm; in the series on subjects (Part B, day 7 (20 mg)), 3 bpm; in the series on subjects (Part B, day 8 (20 mg)) it was 3 bpm. Further, the “Mean HR reduction (2.5 h post-dose vs pre-dose)” value in the series on subjects (10 mg, Day 1) is on record as 14 bpm; with subjects (20 mg, Day 5), 9 bpm; with subjects (40 mg, Day 9), 4 bpm. Further, in the series with humans [2] (in vivo), the “Acute effects on heart rate and rhythm and fatigue/dizziness, dose comparison” value is reported as “milder at 10 mg than at 20 mg”. The “Effect on heart rate” value in the series with humans [2] (in vivo) is “transiently reduces heart rate”. The Fatigue or dizziness entry with humans [2] (in vivo) is on record as “Occasional fatigue or dizziness”. The Heart rhythm entry with humans [2] (in vivo) was “irregular heart rhythm (so-called Wenckebach rhythm)”. In the series with humans [2] (in vivo), the “PR interval in the electrocardiogram (ECG)” value was “transient increases in the PR interval”. Also, the “Time of maximal heart rate effect after administration” value in the series on humans [2] (in vivo) was 1 to 3 h. In addition, in the series on humans [2] (in vivo, po), the “Acute heart rate reduction” value is recorded as “results in an acute heart rate reduction on Day 1”. Moreover, the “Acute heart rate reduction compared to the pre-dose value” in the series with humans [2] (in vivo, po) was “no longer observed”. Further, in the series with humans [2] (repeated daily oral dosing of 5 mg or more), the “Number of peripheral blood lymphocytes” value was “consistent, sustained, and dose-dependent reduction in the number of peripheral blood lymphocytes”.
For the compound `CCCCCCCCc1ccc(CCC(N)(CO)CO)cc1` [FTY720], the “Rate of clinical relapses” value in series [3] was “reduce the rate of clinical relapses”. In the series on humans [4], the “Effect on heart rate” value is reported as “reduces heart rate in humans”.
